# Tests used:
# PPC1 cells [1] = assay: In vitro phage internalization assay; format: cell-based, human; conditions: for phage internalization into cells: 1 hour at 37° C., acid wash, phage-displayed peptide
# Method: (§1) PPC1 cells were incubated with the phage for 1 hour at 4° C. (A) or 37° C. (B). Phage that bound to the cell surface (A) or those that had internalized into the cells (B) were rescued for titration.
# (§2) FIGS. 8A and 8B show the binding (A) and internalization (B) of phage displaying CG7C (control phage), iRGD1, and iRGD1 mutants that carry an alanine substitution for each amino acid (underlined) (SEQ ID NOs:1 and 304-310). PPC1 cells were incubated with the phage for 1 hour at 4° C. (A) or 37° C. (B). Phage that bound to the cell surface (A) or those that internalized into the cells were rescued for titration.
# (§3) PPC1 cells were incubated with the phage for 1 hour at 4° C. (A) or 37° C. (B). Phage that bound to the cell surface (A) or those that had internalized into the cells were rescued for titration.
# To assess the internalization, the phage that bound to the cell surface were removed by washing the cells with acid buffer before phage titration. […] Statistical analysis was performed with Student's t-test. n=3, error bars represent s.d.
# Mice were maintained in accordance with institutional guidelines and the animal experiments were approved by the Animal Research Committees at University of California, Santa Barbara and San Francisco. We used transgenic tumor mice (Bardeesy and DePinho, (2002); Arbeit et al., Progressive squamous epithelial neoplasia in K14-human papillomavirus type 16 transgenic mice. J. Virol. 68, 4358-4368 (1994); Hanahan, Heritable formation of pancreatic β-cell tumors in transgenic mice expressing recombinant insulin/simian virus 40 oncogenes. Nature 315, 115-122 (1985)) and xenograft tumors generated by injecting BALB/c nude mice (Harlan Sprague Dawley, Indianapolis, Ind.) with 10^6 human cancer cells orthotopically, intracardiacly or into the brain and tibia. […] Phage homing studies in vivo and cell binding studies in vitro (Zhang et al., (2006)), immunofluorescence (Karmali et al. (2008)) and flow cytometry (Sugahara et al., Hyaluronan oligosaccharides induce CD44 cleavage and promote cell migration in CD44-expressing tumor cells. J. Biol. Chem. 278, 32259-32265 (2003)) were done as described. Whole body imaging was performed 3 hrs after injecting the Cy7-labelled micelles with the Odyssey Infrared Imaging System (LI-COR Biosciences, Lincoln, Nebr.). In phage internalization assays, the cells were treated with 10^9 plaque forming units (pfu) of phage for 1 hr at 37° C., washed with an acidic buffer (glycine-HCl, pH 2.5) to remove and inactivate phage bound to the cell surface, and lysed for phage titration. Peptide internalization was studied by incubating cells with 20 μM of FAM-labelled peptide for 90 min at 37° C. […] To inhibit the binding and/or internalization of the phage, synthetic peptides or phage rendered non-infectious by UV-irradiation were added to the cells 20 min before incubation with the test phage. FAM-labelled peptides in tissues were quantified by measuring the fluorescence with Image J software. Student's t-test and one-way analysis of variance (ANOVA) followed by a suitable post hoc t-test were used for statistical analysis (Table 3).
# (§4) Suspended cells (10^6 cells in DMEM containing 1% BSA) were incubated with 10^8 pfu/ml of T7 phage for 1 hr at 4° C. The cells were washed 4 times with the binding buffer, lysed with lysogeny broth containing 1% NP-40, and titrated. Phage internalization assays used the same procedure, except that the cells were incubated with phage at 37° C., and that an acidic buffer (500 mM sodium chloride, 0.1 M glycine, 1% BSA, pH 2.5) was substituted for the binding buffer in the second wash. Inhibitors of binding and internalization were added 20 min prior to incubation with phage. Non-infectious phage were prepared by treating phage with UV for 8 min in DMEM containing 1% BSA. The resulting UV-inactivated phage particles expressing about 200 peptides per particle were used as multivalent inhibitors. […]
# PPC1 cells [2] = assay: In vitro phage binding assay; format: cell-based, human; conditions: for phage binding to cells: PPC1 cells, 1 hour at 4° C., phage-displayed peptide; for effect of trypsin treatment on binding to PPC1 cells: treatment with trypsin
# Method: as §1, §2, §3
# (§5) Suspended cells (10^6 cells in DMEM containing 1% BSA) were incubated with 10^8 pfu/ml of T7 phage for 1 hr at 4° C. The cells were washed 4 times with the binding buffer, lysed with lysogeny broth containing 1% NP-40, and titrated. Phage internalization assays used the same procedure, except that the cells were incubated with phage at 37° C., and that an acidic buffer (500 mM sodium chloride, 0.1 M glycine, 1% BSA, pH 2.5) was substituted for the binding buffer in the second wash. Inhibitors of binding and internalization were added 20 min prior to incubation with phage. Non-infectious phage were prepared by treating phage with UV for 8 min in DMEM containing 1% BSA. The resulting UV-inactivated phage particles expressing about 200 peptides per particle were used as multivalent inhibitors. Free synthetic peptides, mouse antibodies against human α1, α2, αvβ3, αvβ5, α5β1, α4, or αv integrins and integrin subunits (Chemicon), goat anti-rat neuropilin-1 (R&D Systems, Minneapolis, Minn.), with mouse and a goat IgG isotype controls (Abcam) were also tested.
# [3] = system: pancreatic ductal adenocarcinoma (PDAC) tumors; assay: In vivo homing of FAM-labelled peptide to PDAC tumors; set-up: species or system mice; conditions: for effect of excess unlabelled peptide on accumulation of FAM-iRGD in tumors: 10-fold excess injected 30 min before FAM-iRGD
# Method: FIGS. 3A and 3B show tumor homing of iRGD1 peptide into murine pancreatic carcinoma. A, 200 μg of […] iRGD1 peptide was injected through the tail vein into transgenic mice with pancreatic ductal adenocarcinoma (PDAC) and the peptide was allowed to circulate for 4.5 hrs. B, An excess of non-labeled iRGD1 (2 mg/mouse) was injected into the PDAC mice 30 min prior to the injection of the […] iRGD1 peptide as described in A. Shown are harvested organs observed under UV light (left) and white light (right).
# Approximately 200 μg of FAM-iRGD1 was injected into mice bearing PDACs and allowed to circulate for 15 min (A), 30 min (B), 2 hrs (C) and 4.5 hrs (D). The nuclear staining with DAPI and vascular endothelial cell staining with an anti-CD31 antibody, respectively are shown. Note that at 15 (A) to 30 min (B) post-injection of FAM-iRGD1, the dye stays in the vessels (arrows) or in the cells surrounding the vessels (A, arrowheads in window at the right upper corner), but no vascular staining with the peptides is observed after 2 hrs (C, arrow) or 4.5 hrs (D, arrow). At 30 min post peptide injection, the peptide fluorescence appears in tumor glands (B, main panel and upper right corner inset); some individual cells within the tumor are strongly positive after 2 hrs (C, asterisks) and 4.5 hrs (D, asterisk).
# (§6) Statistical analysis was performed with Student's t-test.
# Approximately 200 μg of […] iRGD1 peptide (FAM-iRGD1) was injected through the tail vein into immuno-deficient mice bearing xenograft of PPC1 human prostate carcinoma, MIA PaCa-2 human pancreatic carcinoma, or MDA-MB-435 human breast carcinoma and was allowed to circulate for 4.5 hrs (FIG. 2). […] Confocal microscopy of PDAC tumor sections from animals injected with FAM-iRGD1 indicated time-dependent in vivo homing dynamics for this peptide. […] The peptide fluorescence associated with the tumors cells was condensed into the perinuclear area of the tumor cells (FIGS. 4C and 4D, asterisks).
# M21 cells = assay: CRGDK phage binding and internalization, M21 cells; format: cell-based, human
# Method: (§7) Statistical analyses were performed with ANOVA (a, b, d) or Student's t-test (c, e).
# as §5
# PPC1 cells [4] = assay: Inhibition of iRGD phage internalization into PPC1 cells; format: cell-based, human; conditions: 37° C.; inhibitor added before test phage
# Method: (§8) Phage that bound to the cell surface were titered. B, PPC1 cells were treated as described in A except that they were co-incubated with iRGD1 or CG7C phage at 37° C. The internalized phage were rescued for titering as described in the legend for FIG. 5A.
# (§9) A, PPC1 cells were pre-treated with or without series of anti-integrin antibodies, or with normal mouse IgG as a control, for 30 min at 4° C., followed by incubation with iRGD1 phage or CG7C control phage for 1 hour at 4° C. (A) or 37° C. (B). Phage that bound to the cell surface (A) or those that internalized into the cells (B) were rescued and titrated.
# as §7
# as §4, with “BSA.” for “BSA. The resulting UV-inactivated phage particles expressing about 200 peptides per particle were used as multivalent inhibitors.”
# PPC1 cells [5] = assay: Inhibition of iRGE phage internalization within PPC1 cells; format: cell-based, human; conditions: non-infectious phage as inhibitor
# Method: as §7, §5
# [6] = system: orthotopic 22Rv-1 human prostate cancer xenografts; assay: Confocal microscopy of tumors after injection of peptides, phage and micelles; format: in vivo, mice; conditions: free peptides 2 hrs, phage 15 min, micelles 3 hrs circulation
# Method: as §6
# αv integrins = conditions: Koivunen et al. 1993, 1995; cited from earlier work
# PPC1 cells [7] = assay: Confocal microscopy of cells incubated with phage; format: cell-based, human
# Text: Phage bound to the cell surface were removed by washing the cells with a acidic buffer, and internalized phage were rescued and titrated.
# The cells were stained for phage, neuropilin-1, and nuclei. The right panel is a high magnification view of the dotted area in the left panel. […] In almost all tumor ducts examined, αv integrins were positive. […] Scale bars=50 μm.
# The cells were stained for phage (arrowed), neuropilin-1 (distal and flanking), and nuclei (central mass). The right panel of […] (SEQ ID NO:298) phage is a high magnification view of the dotted area in the left panel. […] Scale bars=10 μm.
# Tissue sections were processed as described (Karmali et al. (2008)). Cells (2×10^5 cells) were grown on collagen I-coated coverslips (BD Biosciences, San Jose, Calif.) overnight, and incubated with 10^8 pfu/ml of T7 phage for 30 min. The cells were fixed in 4% paraformaldehyde, and stained with antibodies and DAPI (Molecular Probes, Eugene, Oreg.). The primary antibodies were rat anti-mouse CD31 monoclonal antibody (BD Biosciences), and rabbit anti-human αv integrin (Chemicon, Temecula, Calif.), rabbit anti-human neuropilin-1 (Chemicon), mouse anti-human neuropilin-1 (Miltenyi Biotec, Auburn, Calif.), and rabbit anti-T7 phage polyclonal antibodies. […]
# PPC1 cells [8] = assay: Inhibition of trypsin-treated iRGD phage binding to PPC1 cells; format: cell-based, human; conditions: 4° C.; non-infectious phage as inhibitor
# Method: as §7, §5
# PPC1 cells [9] = assay: Inhibition of CRGDK phage binding to PPC1 cells; format: cell-based, human
# Method: as §7, §5
# PPC1 cells [10] = assay: Inhibition of iRGD phage binding to PPC1 cells; format: cell-based, human; conditions: 4° C.; inhibitor added before test phage
# Method: as §8, §9
# as §4, with “BSA.” for “BSA. The resulting UV-inactivated phage particles expressing about 200 peptides per particle were used as multivalent inhibitors.”
# M21 human melanoma cells = assay: iRGD phage binding to M21 cells; format: cell-based
# Method: as §5
substance,measurement,setting,value
CRGDRGPDC [iRGD2],phage internalization into cells,PPC1 cells [1],similar
same,phage binding to cells,PPC1 cells [2],similar
CRGDKG [CRGDKG phage],phage internalization into cells,PPC1 cells [1],internalized
same,phage binding to cells,PPC1 cells [2],bound
"CRGEKGPDC [iRGE, reference compound]",effect of excess unlabelled peptide on accumulation of FAM-iRGD in tumors,[3],did not have the same effect
CRGDKGPEC [iRGD3],phage internalization into cells,PPC1 cells [1],similar
same,phage binding to cells,PPC1 cells [2],similar
CRGDK [CRGDK phage],binding to M21 cells with different αv integrin expression levels,M21 cells,binds similarly
same,phage binding to M21 cells with minimal expression of neuropilin-1,M21 cells,did not substantially bind
same,phage internalization into M21 cells with minimal expression of neuropilin-1,M21 cells; 1 hour at 37° C.,did not substantially bind to or internalize
same,increase of binding by forced expression of neuropilin-1,M21 cells; M21 cells transfected with neuropilin-1 cDNA,3.5 fold
same,increase of internalization by forced expression of neuropilin-1,"M21 cells; M21 cells transfected with neuropilin-1 cDNA, not shown",3.5 fold
same,internalization relative to iRGD phage,"M21 cells; M21 cells, 1 hour at 37° C.",reversed
same,internalization relative to iRGD phage,PPC1 cells [1]; 37° C.,more efficiently than iRGD phage
same,phage internalization into cells,PPC1 cells [1],internalized
same,inhibition of iRGD phage internalization into PPC1 cells,PPC1 cells [4],blocked
same,inhibition of iRGE phage internalization within PPC1 cells,PPC1 cells [5],inhibited the internalization
same,phage binding to cells,PPC1 cells [2],bound to
CRGD [CRGD phage],phage internalization into cells,PPC1 cells [1],did not
same,phage binding to cells,PPC1 cells [2],did not
CRGDC,distribution within tumor (confocal microscopy),[6],accumulated only in and around tumor blood vessels
same,affinity for αv integrins,αv integrins,strong affinity
same,effect of trypsin treatment on binding to PPC1 cells,PPC1 cells [2],no effect
CDCRGDCFC [RGD-4C],distribution within tumor (confocal microscopy),[6],accumulated only in and around tumor blood vessels
same,affinity for αv integrins,αv integrins,strong affinity
same,effect of trypsin treatment on binding to PPC1 cells,PPC1 cells [2],no effect
CRGDGGPDC,co-localization with neuropilin-1 (confocal microscopy),PPC1 cells [7],did not co-localize
same,internalization into cells (confocal microscopy),PPC1 cells [7],nor did they internalize
CRG [CRG phage],phage internalization into cells,PPC1 cells [1],did not
same,phage binding to cells,PPC1 cells [2],did not
RPARPAR [RPARPAR phage],inhibition of binding of trypsin-treated iRGD phage,PPC1 cells [8],blocked
same,inhibition of CRGDK phage binding to PPC1 cells,PPC1 cells [9],dose-dependently inhibited
same,inhibition of iRGD phage internalization into PPC1 cells,PPC1 cells [4],blocked
same,inhibition of iRGE phage internalization within PPC1 cells,PPC1 cells [5],inhibited the internalization
CRGDKGPDC [iRGD1],inhibition of iRGD phage binding to PPC1 cells,PPC1 cells [10],inhibited in a dose-dependent manner
same,effect of excess unlabeled peptide on accumulation of FAM-iRGD1 in PDAC tumors,[3]; 2 mg/mouse 30 min prior to FAM-iRGD1,inhibited the accumulation
same,effect of excess unlabelled peptide on accumulation of FAM-iRGD in tumors,[3],greatly reduced
same,binding to M21 cells that express both αvβ3 and αvβ5,M21 human melanoma cells,bound
same,binding to M21 variants lacking expression of αvβ3 and αvβ5,M21 human melanoma cells,did not
